In patent US6734204B1, “Serotonin potentiation by oleamide analogs” (The Scripps Research Institute, priority 1998, dated 2004):
“Also recorded” adds a separate entry of the source. Where two headings read alike, the source gives them in different places.

Legend:
[1] = target: T1, human 5-HT1A receptor (Homo sapiens, UniProt P08908); assay: R-SAT assay, RAT-1 cells expressing the human 5-HT1A receptor, β-galactosidase readout; type: cell-based; settings: agent 500 nM, 100 nM 5-HT, compared with oleamide
T1 construct: host or cells: RAT-1 cells, cotransfected with the beta-galactosidase gene
T1 sequence (P08908 1-422): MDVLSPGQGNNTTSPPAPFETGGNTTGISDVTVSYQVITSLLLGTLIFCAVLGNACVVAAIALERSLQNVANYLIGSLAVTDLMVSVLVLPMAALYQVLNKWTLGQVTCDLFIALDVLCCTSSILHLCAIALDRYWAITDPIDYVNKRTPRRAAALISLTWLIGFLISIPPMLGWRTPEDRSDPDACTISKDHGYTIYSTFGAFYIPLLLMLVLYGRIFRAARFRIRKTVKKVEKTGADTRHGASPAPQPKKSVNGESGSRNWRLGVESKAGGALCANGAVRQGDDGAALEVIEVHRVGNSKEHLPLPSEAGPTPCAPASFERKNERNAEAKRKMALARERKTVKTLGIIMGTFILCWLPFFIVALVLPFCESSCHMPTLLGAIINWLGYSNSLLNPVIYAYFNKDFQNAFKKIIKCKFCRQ
Protocol: (§1) Activation of the 5-HT2A or 5-HT1A receptors in 5-HT dependent cell lines results in cell prolification measured by the levels of -galactosidase produced.
(§2) An extensive series of agents was tested at 500 nM for their ability to potentiate the rat 5-HT2A or human 5-HT1A receptor response to 100 nM 5-HT. […] The analog screening was conducted with the rat 5-HT2A assay and a subset of analogs was also examined in the human 5-HT1A assay. The results reported are normalized to a 100% potentiation by oleamide for the ease of direct comparisons.
(§3) Methods. The assays were conducted with R-SAT kits (Receptor Technologies Inc, Winooski, Vt.) containing NIH 3T3 cells expressing the rat 5-HT2A receptor (Suter et al. (1987) Fundam. Appl. Toxicol. 9, 785-794; Pritchett et al. (1988) EMBO J 7, 4135-4140) or RAT-1 cells expressing the human 5-HT1A receptor (Lam et al. (1996) Biochem. Biophys. Res. Commun. 219, 853-858; Kobilka et al. (1987) Nature 329, 75-79) cotransfected with the -galactosidase gene and were performed according to the procedures provided (Messier et al. (1995) Pharmacol. Toxicol. 76, 308-311; Brann et al. (1996) J. Biomol. Screening 1, 43-45). The cells in Dulbecco modified Eagle's medium containing serotonin (100 nM) and the analogs (500 nM) were incubated in a humidified 5% CO2 incubator at 37° C. for 4 or 5 days for the 5-HT2A and 5-HT1A transfected cells, respectively. Levels of -galactosidase were measured after incubation with the chromogenic substrate o-nitrophenyl- -D-galactopyranoside (20) at 30° C. in a humidified incubator for a recommended period of time and the absorbance was measured at 405 nm. The results were normalized to 100% for oleamide (rel. % potentiation) for the ease of comparison and are the average of 2-8 determinations.

[2] = target: T2, rat 5-HT2A receptor (Rattus norvegicus, UniProt P14842); assay: R-SAT assay, NIH 3T3 cells expressing the rat 5-HT2A receptor, β-galactosidase readout; type: cell-based; settings: agent 500 nM, 100 nM 5-HT, compared with oleamide
T2 construct: host or cells: NIH 3T3 cells, cotransfected with the beta-galactosidase gene
Protocol: as §1, §2, §3

[3] = tested on: FAAH; settings: cited from earlier work
[4] = target: T2, rat 5-HT2A receptor; assay: R-SAT assay, NIH 3T3 cells expressing the rat 5-HT2A receptor, β-galactosidase readout; type: cell-based; settings: for potentiation response: 100 nM oleamide
[5] = target: T1, human 5-HT1A receptor; assay: R-SAT assay, RAT-1 cells expressing the human 5-HT1A receptor, β-galactosidase readout; type: cell-based; settings: for potentiation: 100 nM 5-HT
[6] = target: T3, 5-HT2C receptor (Homo sapiens, UniProt P28335); settings: cited from earlier work
T3 construct: host or cells: frog oocytes, transfected
T3 sequence (P28335 33-458): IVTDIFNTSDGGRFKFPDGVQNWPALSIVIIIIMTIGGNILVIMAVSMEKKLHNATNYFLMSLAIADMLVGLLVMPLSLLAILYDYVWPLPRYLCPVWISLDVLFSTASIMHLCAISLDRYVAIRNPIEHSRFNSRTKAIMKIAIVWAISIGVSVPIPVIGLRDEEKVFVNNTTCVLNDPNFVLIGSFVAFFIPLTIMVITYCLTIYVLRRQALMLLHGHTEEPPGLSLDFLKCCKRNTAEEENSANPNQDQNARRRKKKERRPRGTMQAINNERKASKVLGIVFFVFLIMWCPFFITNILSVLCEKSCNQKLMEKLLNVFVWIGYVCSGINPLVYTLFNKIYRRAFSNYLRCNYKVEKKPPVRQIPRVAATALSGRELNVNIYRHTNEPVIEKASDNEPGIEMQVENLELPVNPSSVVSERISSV

[7] = target: T4, 5-HT7 receptor (Homo sapiens, UniProt P34969); settings: cited from earlier work
T4 construct: host or cells: HeLa cells, transfected

[8] = target: T5, 5-HT3 ion-gated channel receptor (Homo sapiens, UniProt P46098); settings: 100 nM serotonin, 100 nM oleamide; cited from earlier work
T5 construct: host or cells: frog oocytes, transfected
T5 sequence (P46098 24-478): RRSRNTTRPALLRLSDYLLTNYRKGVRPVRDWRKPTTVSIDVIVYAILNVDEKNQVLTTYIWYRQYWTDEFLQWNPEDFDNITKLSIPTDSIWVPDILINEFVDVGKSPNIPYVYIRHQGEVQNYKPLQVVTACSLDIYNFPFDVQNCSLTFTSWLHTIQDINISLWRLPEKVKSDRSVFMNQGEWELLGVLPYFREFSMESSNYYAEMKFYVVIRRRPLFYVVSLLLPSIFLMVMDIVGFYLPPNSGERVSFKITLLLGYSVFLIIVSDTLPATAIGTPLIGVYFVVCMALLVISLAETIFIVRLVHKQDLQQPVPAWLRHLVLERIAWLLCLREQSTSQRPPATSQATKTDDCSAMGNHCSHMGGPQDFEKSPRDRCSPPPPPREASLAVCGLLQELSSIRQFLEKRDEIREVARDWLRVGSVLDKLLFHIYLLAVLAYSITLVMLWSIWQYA

[9] = target: T6, 5-HT2A receptors (Rattus norvegicus, UniProt P14842); settings: 100 nM serotonin, 100 nM oleamide; Thomas et al. 1997; cited from earlier work
T6 construct: rat pituitary P11 cells expressing the 5-HT2 receptor; endogenous in cells; host or cells: rat pituitary P11 cells

[10] = target: T7, 5-HT2A receptor (Homo sapiens, UniProt P28223); settings: 100 nM serotonin, 100 nM oleamide; Huidobro-Toro et al. 1996; cited from earlier work
T7 construct: host or cells: frog oocytes, transfected
T7 sequence (P28223 whole entry): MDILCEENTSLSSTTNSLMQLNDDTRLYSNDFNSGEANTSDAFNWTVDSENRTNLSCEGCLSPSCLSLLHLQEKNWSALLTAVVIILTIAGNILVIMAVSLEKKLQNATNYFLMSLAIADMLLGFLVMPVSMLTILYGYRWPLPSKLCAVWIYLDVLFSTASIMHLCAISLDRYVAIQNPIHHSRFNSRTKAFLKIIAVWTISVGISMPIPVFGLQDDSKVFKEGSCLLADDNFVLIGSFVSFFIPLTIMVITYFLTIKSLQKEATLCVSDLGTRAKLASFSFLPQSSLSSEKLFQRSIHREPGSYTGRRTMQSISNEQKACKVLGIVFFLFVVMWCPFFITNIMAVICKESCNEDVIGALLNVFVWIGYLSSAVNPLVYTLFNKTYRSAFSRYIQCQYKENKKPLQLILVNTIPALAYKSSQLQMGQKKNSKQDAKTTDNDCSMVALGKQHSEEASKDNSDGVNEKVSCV

T2 sequence (P14842 whole entry): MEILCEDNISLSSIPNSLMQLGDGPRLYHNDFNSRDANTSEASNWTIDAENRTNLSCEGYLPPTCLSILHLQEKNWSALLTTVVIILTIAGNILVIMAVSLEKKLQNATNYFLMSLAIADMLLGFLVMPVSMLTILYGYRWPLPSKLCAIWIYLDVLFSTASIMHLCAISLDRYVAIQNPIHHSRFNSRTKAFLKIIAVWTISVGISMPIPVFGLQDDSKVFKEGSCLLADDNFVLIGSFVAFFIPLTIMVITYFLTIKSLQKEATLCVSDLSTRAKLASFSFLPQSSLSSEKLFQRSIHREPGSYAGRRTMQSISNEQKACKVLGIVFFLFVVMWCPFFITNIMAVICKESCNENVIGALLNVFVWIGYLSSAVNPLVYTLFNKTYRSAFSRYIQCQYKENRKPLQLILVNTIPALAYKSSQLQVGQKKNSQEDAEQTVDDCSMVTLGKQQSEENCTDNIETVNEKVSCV
T4 sequence (P34969 whole entry): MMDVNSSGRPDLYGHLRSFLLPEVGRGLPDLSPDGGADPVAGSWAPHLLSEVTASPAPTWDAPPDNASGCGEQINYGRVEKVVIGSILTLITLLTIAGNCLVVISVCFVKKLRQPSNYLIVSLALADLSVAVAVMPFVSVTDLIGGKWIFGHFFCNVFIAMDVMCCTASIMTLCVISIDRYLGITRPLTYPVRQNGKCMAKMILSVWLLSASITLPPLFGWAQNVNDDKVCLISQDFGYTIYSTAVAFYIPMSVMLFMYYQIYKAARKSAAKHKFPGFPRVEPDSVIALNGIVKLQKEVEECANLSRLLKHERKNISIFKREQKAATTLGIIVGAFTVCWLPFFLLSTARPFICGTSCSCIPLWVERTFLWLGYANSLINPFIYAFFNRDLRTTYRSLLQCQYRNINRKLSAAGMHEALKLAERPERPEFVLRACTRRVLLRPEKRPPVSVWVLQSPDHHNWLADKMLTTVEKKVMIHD
T6 sequence (P14842 whole entry): as the sequence (P14842 whole entry) above

| SMILES | potentiation of the 5-HT1A receptor response (in words) [1] | potentiation of the 5-HT2A receptor response (in words) [2] | other results |
| --- | --- | --- | --- |
| CCCC/C=C\CCCCCCCC(N)=O [14:1^9, Myristoleamide] | more effective on the 5-HT1A receptor than 5-HT2A |  |  |
| CCCCCCCC/C=C\CCCCCCCC(=O)NCCCO [oleyl propanolamide] | equally effective |  |  |
| CCCCCCCC/C=C\CCCCCCCC(=O)NCCO [oleyl ethanolamide] | found to potentiate | less active or ineffective |  |
| CCCCC/C=C\C/C=C\C/C=C\C/C=C\CCCC(=O)NCCO [anandamide, reference compound] | found to potentiate | weakly inhibitory; also recorded: less active or ineffective |  |
| CCCCCCCCC=CCCCCCCCC(=O)N(C)C [NMe2 tertiary amide] |  | maximum effect |  |
| CCCCCC/C=C\CCCCCCCC(N)=O [16:1^9, Palmitoleamide] | approaching the potency of oleamide |  |  |
| CCCCCCCC/C=C\CCCCCCCC=O [oleyl aldehyde] |  |  | inhibition of FAAH (in words) [3]: potent inhibitors |
| CCCCCCCC/C=C\CCCCCCCCOCC(CO)OC(C)=O (stereo not drawn) [1-oleyl-2-acetylglycerol] |  | weakly inhibited |  |
| CCCCCCCC/C=C\CCCCCCCC(=O)NC1CC1 [cyclopropyl amide] | effective at potentiating | uniquely effective at inhibiting; also recorded: inactive or inhibitory |  |
| CCCCC/C=C\C/C=C\C/C=C\C/C=C\CCCC(N)=O [Arachidonamide] |  | ineffective | potentiation of the 5-HT2A receptor response (in words) ([2]; listed as arachidonamide): less active or ineffective |
| CCCCCCCCC=CCCCCCCCC(=O)NC(C)C [isopropyl amide] | effective at potentiating | inactive or inhibitory |  |
| CCCCCCCC/C=C\CCCCCCCC(=O)NCC(=O)O [N-oleyl glycine, N-Oleoyl glycine] | weak potentiator |  |  |
| CCCCCCCC/C=C\CCCCCCCC(N)=O [oleamide, cis-9-ocatadecenamide] |  | most effective | potentiation response ([4]; 100 nM 5-HT): 165%; potentiation response ([4]; 1 μM 5-HT): 170%; potentiation at higher concentration ([4]; 1 μM oleamide): no additional potentiation; concentration giving maximal response ([4]; assayed at 100 nM or 1 μM 5-HT): 100 nM; effect of treatment alone ([4]; without 5-HT): no effect; potentiation ([5]; 100 nM oleamide): 370%; potentiation ([5]; 1 μM oleamide): 560%; lowest concentrations producing a measurable effect ([5]; with 5-HT): 1 to 10 nM; effect of treatment alone ([5]; without 5-HT): no effect; potentiation of 5-HT2C ([6]; 100 nM serotonin, 100 nM oleamide): 365%; concentration of maximal potentiation [6]: 100 nM; lowest concentration at which potentiation was observed [6]: 1 nM; action at the 5-HT7 receptor ([7]; alone): weak agonist; action at the 5-HT7 receptor ([7]; in the presence of serotonin): unsurmountable antagonist; effect on 5-HT3 receptor [8]: no effect; potentiation of 5-HT2A [9]: 228%; potentiation of 5-HT2A [10]: 260% |
| CCCCCCCC/C=C\CCCCCCCC(=O)O [oleic acid, Oleic acid, reference compound] | better tolerated | did not provide a comparable potentiation |  |
| CCCCCCCCCCCCCC/C=C\CCCC(N)=O [20:1^5] |  |  | potentiation of the 5-HT2A receptor response (in words) ([2]; listed as 20:1^9): inactivity; potentiation of the 5-HT2A receptor response (in words) ([2]; listed as 20:1^13): modest activity |
| CCCCCCCC/C=C\CCCCCCC(C)(C)C(N)=O [2,2-dimethyloleamide] |  | potent inhibitors |  |
| CCCCCCCC/C=C\CCCCCCCCCCCCCC(N)=O [24:1^9, Nervonamide] |  | modest activity |  |
| CCCCC/C=C\C/C=C\CCCCCCCC(N)=O [18:2^9,12, Linoleamide] | approaching the potency of oleamide |  |  |
| CCCCCCCCCCCCCCCCCC(N)=O [18:0, stearamide] | less effective than oleamide, albeit not inactive | no observable potentiation; also recorded: ineffective at potentiating |  |
| CC/C=C\C/C=C\C/C=C\CCCCCCCC(N)=O [18:3^6,9,12, linolenamide] |  | more effective but still less potent |  |
| CCCCCCCCC#CCCCCCCCC(N)=O [Compound 2, 9-octadecynamide] |  | nearly equipotent with oleamide |  |
| CCCCCCCC/C=C/CCCCCCCC(N)=O [18:1^9-trans, Elaidamide] | less effective than oleamide, albeit not inactive | no observable potentiation; also recorded: ineffective at potentiating |  |
